Values of other authors as cited in US20070190209A1, “All natural multivitamin and multimineral dietary supplement formulations for enhanced absorption and biological utilization” (Mannatech, Inc., priority 2006, published 2007).
Where two headings read alike, the source gives them in different places. Each block holds one compound with its values, some of them ahead of it.

Tests used:
[1] = tested on: human cytosolic glutathione S-transferases (GSTs); settings: van Haften, et al. (2002, 2003)
[2] = tested on: bone components; settings: in vitro, combined with zinc; Uchiyama, et al. (2005)
[3] = tested on: intestinal glucuronidation
[4] = tested on: phase II detoxifying enzymes; settings: glutathione transferases, NAD(P)H:quinone reductases, epoxide hydrolases; literature
[5] = tested on: osteoclasts; settings: Rao, et al. (2003)
[6] = tested on: thyroid gland of rats; settings: Radovic, et al. (2005)
[7] = tested on: mammalian glutathione transferases; settings: Kulkarni and Kulkarni (1995)
[8] = by decreasing or eliminating intestinal glucuronidation, Mizuma and Awazu (2004)

Compound: Cc1c(C)c2c(c(C)c1O)CC[C@@](C)(CCC[C@H](C)CCC[C@H](C)CCCC(C)C)O2 [alpha-tocopherol]
activity of human cytosolic GSTs [1]: inhibited

Compound: CC1=C(/C=C/C(C)=C/C=C/C(C)=C/C=C/C=C(C)/C=C/C=C(C)/C=C/C2=C(C)C[C@@H](O)CC2(C)C)C(C)(C)CCC1 [beta-cryptoxanthin]
anabolic effects on bone components [2]: synergistic anabolic effects

absorption of model drug alpha-napthol [3, 8]: increase the absorption
Compound: O=c1cc(-c2ccccc2)oc2cc(O)cc(O)c12 [chrysin]

absorption of model drug alpha-napthol [3, 8]: increase the absorption
Compound: Oc1cc(O)c2c(c1)O[C@H](c1ccc(O)c(O)c1)[C@H](O)C2 [epicatechin]

Compound: O=C(O[C@@H]1Cc2c(O)cc(O)cc2O[C@@H]1c1cc(O)c(O)c(O)c1)c1cc(O)c(O)c(O)c1 [epigallocatechin galleate (ECGC), epigallocatechin galleate]
absorption of model drug alpha-napthol [3]: increase the absorption

Compound: CSCCCCC(=NOS(=O)(=O)O)S[C@@H]1O[C@H](CO)[C@@H](O)[C@H](O)[C@H]1O [glucoerucin]
induction of phase II detoxifying enzymes [4]: potent inducers

Compound: C[S+]([O-])CCCC/C(=N\OS(=O)(=O)O)S[C@@H]1O[C@H](CO)[C@@H](O)[C@H](O)[C@H]1O (stereo partly shown) [glucoraphanin]
induction of phase II detoxifying enzymes [4]: potent inducers

Compound: CC(C)=CCC/C(C)=C/C=C/C(C)=C/C=C/C(C)=C/C=C/C=C(C)/C=C/C=C(C)/C=C/C=C(\C)CCC=C(C)C [lycopene]
formation of osteoclasts and osteoclastic mineral resorption [5]: prevented the formation of osteoclasts and osteoclastic mineral resorption

absorption of model drug alpha-napthol [3, 8]: increase the absorption
Compound: O=c1c(O)c(-c2ccc(O)c(O)c2)oc2cc(O)cc(O)c12 [quercetin]

Compound: COc1cc(O)c(CC=C(C)C)c(O)c1C(=O)/C=C/c1ccc(O)cc1 [xanthohumol]
uptake of iodine into the thyroid gland [6]: stimulates the uptake of iodine

Compound: tocopherols
activity of human cytosolic GSTs [1]: inhibited

Compound: tocotrieneols
activity of human cytosolic GSTs [1]: inhibited

Compound: vitamin A
inhibition of mammalian glutathione transferases [7]: inhibit mammalian glutathione transferases at low concentrations
